Reference: US9650339B2, “Inhibitors of histone demethylases” (Gilead Sciences, Inc., priority 2013, dated 2017)

Tests used:
Type in all cases: biochemical
KDM5B (PLU-1) = biological target: T1, KDM5B (PLU-1) (Homo sapiens, UniProt Q9UGL1); assay: Histone lysine demethylase AlphaLISA assay, KDM5B; details: read-out: KDM5B HDME Inhibition IC50
T1 sequence (Q9UGL1 1-809): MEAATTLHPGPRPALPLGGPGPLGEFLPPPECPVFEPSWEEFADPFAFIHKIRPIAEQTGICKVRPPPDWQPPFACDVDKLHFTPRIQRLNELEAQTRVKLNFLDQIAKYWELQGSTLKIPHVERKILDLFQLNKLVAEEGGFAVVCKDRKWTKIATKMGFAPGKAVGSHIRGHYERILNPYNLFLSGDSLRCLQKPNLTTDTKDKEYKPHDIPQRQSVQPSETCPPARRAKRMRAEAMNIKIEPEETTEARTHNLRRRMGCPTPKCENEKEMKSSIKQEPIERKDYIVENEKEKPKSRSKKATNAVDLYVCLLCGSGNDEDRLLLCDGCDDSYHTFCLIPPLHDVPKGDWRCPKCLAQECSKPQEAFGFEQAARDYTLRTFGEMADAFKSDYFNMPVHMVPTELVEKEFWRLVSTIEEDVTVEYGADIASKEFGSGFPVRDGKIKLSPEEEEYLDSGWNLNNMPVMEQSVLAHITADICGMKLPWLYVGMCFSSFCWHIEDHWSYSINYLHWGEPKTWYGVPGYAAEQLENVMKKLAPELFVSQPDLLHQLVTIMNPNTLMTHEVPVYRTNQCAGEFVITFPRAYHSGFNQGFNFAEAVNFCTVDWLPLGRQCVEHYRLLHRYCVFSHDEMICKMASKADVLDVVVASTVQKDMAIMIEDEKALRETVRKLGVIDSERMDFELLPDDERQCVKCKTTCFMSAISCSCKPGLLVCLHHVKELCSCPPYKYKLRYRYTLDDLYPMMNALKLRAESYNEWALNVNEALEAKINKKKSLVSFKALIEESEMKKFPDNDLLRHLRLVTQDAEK
Outline: (§1)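 Steps: enzyme equilibrated 10 min in buffer; compounds in 3% DMSO solution added, 10 min; substrate mix added (peptide, 25 μM L-Asc, 10 μM α-KG), room temperature; acceptor beads, then streptavidin donor beads, dark incubations; plate read.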

KDM4A (JMJD2A) = biological target: T2, KDM4A (JMJD2A) (Homo sapiens, UniProt O75164); assay: Histone lysine demethylase AlphaLISA assay, KDM4A; details: read-out: KDM4A HDME Inhibition IC50
T2 construct: 1-350; purchased BPS Bioscience, US; host or cells: E. coli
T2 sequence (O75164 1-350): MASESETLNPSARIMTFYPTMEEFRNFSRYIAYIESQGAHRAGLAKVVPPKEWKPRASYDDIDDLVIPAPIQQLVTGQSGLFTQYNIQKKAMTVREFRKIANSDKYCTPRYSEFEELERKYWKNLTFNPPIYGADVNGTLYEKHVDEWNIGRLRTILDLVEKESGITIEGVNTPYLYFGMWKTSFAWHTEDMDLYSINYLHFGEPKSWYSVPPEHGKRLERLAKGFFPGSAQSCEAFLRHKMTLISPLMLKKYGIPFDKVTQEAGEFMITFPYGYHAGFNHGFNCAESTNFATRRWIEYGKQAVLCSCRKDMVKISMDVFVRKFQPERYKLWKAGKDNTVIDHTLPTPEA
Outline: as §1

KDM2B (FBXL10) = biological target: T3, KDM2B (FBXL10) (Homo sapiens, UniProt Q8NHM5); assay: Histone lysine demethylase AlphaLISA assay, KDM2B; details: read-out: KDM2B HDME Inhibition IC50
T3 sequence (Q8NHM5 1-650): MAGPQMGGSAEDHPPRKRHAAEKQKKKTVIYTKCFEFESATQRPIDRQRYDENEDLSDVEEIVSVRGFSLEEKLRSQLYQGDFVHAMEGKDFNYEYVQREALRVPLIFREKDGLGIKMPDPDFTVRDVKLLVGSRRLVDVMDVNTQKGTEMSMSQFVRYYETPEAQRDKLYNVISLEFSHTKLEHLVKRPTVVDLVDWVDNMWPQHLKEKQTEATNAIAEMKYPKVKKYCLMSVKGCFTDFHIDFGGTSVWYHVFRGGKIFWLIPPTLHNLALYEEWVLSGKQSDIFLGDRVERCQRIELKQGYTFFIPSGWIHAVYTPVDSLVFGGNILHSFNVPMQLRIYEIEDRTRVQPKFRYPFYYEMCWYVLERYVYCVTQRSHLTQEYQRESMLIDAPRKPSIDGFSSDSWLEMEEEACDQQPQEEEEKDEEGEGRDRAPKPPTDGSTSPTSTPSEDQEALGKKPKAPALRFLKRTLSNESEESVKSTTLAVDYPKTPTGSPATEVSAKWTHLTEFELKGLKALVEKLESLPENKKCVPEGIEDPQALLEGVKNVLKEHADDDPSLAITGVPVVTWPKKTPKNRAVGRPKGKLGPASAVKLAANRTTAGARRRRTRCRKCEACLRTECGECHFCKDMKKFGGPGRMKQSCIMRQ
Outline: as §1

KDM6B (JMJD3) = biological target: T4, KDM6B (JMJD3) (Homo sapiens, UniProt O15054); assay: Histone lysine demethylase AlphaLISA assay, KDM6B; details: read-out: KDM6B HDME Inhibition IC50
T4 construct: 1043-end; purchased BPS; host or cells: Bac (baculovirus system)
T4 sequence (O15054 1043-1682 isoform O15054-1 limits assumed): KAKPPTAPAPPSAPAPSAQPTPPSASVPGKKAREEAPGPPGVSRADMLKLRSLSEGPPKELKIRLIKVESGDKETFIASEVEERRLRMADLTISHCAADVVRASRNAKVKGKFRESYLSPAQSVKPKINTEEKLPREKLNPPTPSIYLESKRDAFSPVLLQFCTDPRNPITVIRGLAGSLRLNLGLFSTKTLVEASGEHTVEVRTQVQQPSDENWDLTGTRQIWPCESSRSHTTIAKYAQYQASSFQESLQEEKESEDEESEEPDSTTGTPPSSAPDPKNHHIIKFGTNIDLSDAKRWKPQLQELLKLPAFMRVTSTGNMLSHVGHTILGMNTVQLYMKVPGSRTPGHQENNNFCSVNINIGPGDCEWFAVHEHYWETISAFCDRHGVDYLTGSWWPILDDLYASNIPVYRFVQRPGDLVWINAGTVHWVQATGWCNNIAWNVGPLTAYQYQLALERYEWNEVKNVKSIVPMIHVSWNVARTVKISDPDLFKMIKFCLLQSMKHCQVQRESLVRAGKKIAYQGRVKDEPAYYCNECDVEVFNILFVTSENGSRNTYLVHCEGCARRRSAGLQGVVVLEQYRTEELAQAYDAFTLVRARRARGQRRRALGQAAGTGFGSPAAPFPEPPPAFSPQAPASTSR
Outline: as §1

KDM5C (JARID1C) = biological target: T5, KDM5C (JARID1C) (Homo sapiens, UniProt P41229); assay: Histone lysine demethylase AlphaLISA assay, KDM5C; details: read-out: KDM5C HDME Inhibition IC50
T5 construct: 2-1560; purchased BPS; host or cells: Bac (baculovirus system)
T5 sequence (P41229 2-1560): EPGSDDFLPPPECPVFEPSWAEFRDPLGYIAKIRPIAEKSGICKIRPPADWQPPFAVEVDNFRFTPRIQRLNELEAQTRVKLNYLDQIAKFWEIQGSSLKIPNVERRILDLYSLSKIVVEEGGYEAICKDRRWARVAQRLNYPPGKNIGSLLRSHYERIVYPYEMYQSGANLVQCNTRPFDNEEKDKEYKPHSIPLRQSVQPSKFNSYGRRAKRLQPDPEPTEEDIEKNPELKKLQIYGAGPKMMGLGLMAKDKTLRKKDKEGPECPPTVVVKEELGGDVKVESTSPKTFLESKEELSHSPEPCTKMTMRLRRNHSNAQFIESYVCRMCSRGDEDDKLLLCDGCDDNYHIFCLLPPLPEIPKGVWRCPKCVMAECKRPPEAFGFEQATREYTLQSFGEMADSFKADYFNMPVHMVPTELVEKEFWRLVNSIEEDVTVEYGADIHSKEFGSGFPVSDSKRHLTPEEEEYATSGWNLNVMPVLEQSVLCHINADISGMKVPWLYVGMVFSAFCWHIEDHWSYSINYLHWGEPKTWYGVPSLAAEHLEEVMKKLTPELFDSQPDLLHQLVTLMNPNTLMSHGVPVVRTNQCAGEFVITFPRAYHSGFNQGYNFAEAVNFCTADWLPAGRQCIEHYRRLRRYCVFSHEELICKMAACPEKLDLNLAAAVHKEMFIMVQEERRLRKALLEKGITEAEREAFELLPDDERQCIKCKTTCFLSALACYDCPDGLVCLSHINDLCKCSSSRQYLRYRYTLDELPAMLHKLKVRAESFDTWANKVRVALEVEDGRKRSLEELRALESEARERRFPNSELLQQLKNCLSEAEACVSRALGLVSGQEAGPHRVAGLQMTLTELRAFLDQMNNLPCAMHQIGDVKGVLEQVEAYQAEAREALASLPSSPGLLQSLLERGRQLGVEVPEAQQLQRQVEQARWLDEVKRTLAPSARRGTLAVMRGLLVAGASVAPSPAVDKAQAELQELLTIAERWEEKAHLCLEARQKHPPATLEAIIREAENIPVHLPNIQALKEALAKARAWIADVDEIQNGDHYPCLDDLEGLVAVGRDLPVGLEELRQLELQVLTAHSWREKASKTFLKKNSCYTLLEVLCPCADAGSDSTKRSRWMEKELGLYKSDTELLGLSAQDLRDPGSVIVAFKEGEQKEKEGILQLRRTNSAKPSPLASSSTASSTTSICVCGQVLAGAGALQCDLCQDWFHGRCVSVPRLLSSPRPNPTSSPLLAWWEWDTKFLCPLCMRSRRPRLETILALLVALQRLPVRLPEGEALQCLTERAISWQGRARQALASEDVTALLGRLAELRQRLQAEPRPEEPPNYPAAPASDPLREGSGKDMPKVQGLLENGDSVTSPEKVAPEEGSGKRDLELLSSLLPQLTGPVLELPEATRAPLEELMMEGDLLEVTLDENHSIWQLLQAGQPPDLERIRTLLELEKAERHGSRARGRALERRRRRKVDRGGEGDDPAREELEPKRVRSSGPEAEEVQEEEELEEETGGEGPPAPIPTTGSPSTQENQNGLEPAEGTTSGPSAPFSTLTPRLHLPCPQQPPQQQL
Outline: as §1

SMILES | IC50 (KDM5B (PLU-1)) [nM] | IC50 (KDM4A (JMJD2A)) [nM] | IC50 (KDM2B (FBXL10)) [nM] | IC50 (KDM6B (JMJD3)) [nM] | IC50 (KDM5C (JARID1C)) [nM]
COCCNCc1ccnc(CNCCCN(C)Cc2ccccc2)c1 [Compound 19, benzyl(3-{[(4-{[(2-methoxyethyl)amino]-methyl}pyridin-2-yl)methyl]amino}-propyl)methylamine] | 250 to 2500 | > 2500 | > 2500 | > 2500 | > 2500
COc1ccccc1CN1CCC(NC(=O)CNCc2cc(CNC3CC3)ccn2)CC1 [Compound 20, 2-[({4-[(cyclopropylamino)-methyl]pyridin-2-yl}methyl)amino]-N-{1-[(2-methoxyphenyl)methyl]-piperidin-4-yl}acetamide] | < 250 | < 250 | > 2500 | > 2500 | < 250
CCN(CCN(C)C)C(=O)CN(Cc1cc(CNC(=O)C(F)(F)F)ccn1)C(=O)C(F)(F)F [Compound 26, N-[(2-{[N-({[2-(dimethylamino)ethyl]-(ethyl)carbamoyl}-methyl)-2,2,2-trifluoroacetamido]-methyl}pyridin-4-yl)methyl]-2,2,2-trifIuoroacetamide] | > 2500 |  |  |  | 
COC(=O)CNCc1cc(/C=N/C2CC2)ccn1 [Compound 59, methyl 2-[({4-[N-cyclopropyl-carboximidoyl]pyridin-2-yl}methyl)amino]-acetate] | < 250 | 250 to 2500 |  | > 2500 | < 250
CCN(CC)CCCCNCc1cc(C2NCCCN2C)ccn1 (stereo not drawn) [Compound 68, [4-(diethylamino)butyl]({[4-(1-methyl-1,3-diazinan-2-yl)pyridin-2-yl]methyl})amine] | < 250 |  |  |  | 

The remaining lines, values ahead:

IC50 (KDM5B (PLU-1)) [nM] | IC50 (KDM4A (JMJD2A)) [nM] | IC50 (KDM2B (FBXL10)) [nM] | IC50 (KDM6B (JMJD3)) [nM] | IC50 (KDM5C (JARID1C)) [nM] | SMILES
> 2500 | > 2500 | > 2500 | > 2500 |  | CN(C)CCCCNCc1cc(CN)ccn1 [Compound 2, [2-({[4-(dimethylamino)butyl]-amino}methyl)pyridin-4-yl]methanamine]
250 to 2500 | > 2500 | > 2500 | > 2500 |  | CN(C)CCNCc1ccnc(CNCCCN(C)Cc2ccccc2)c1 [Compound 18, benzyl[3-({[4-({[2-(dimethylamino)ethyl]-amino}methyl)pyridin-2-yl]methyl}-amino)propyl]-methylamine]
< 250 | > 2500 |  |  |  | O=Cc1ccnc(CNCCCCN(Cc2ccccc2)C2CC2)c1 [Compound 109, 2-[({4-[benzyl-(cyclopropyl)amino]-butyl}amino)methyl]-pyridine-4-carbaldehyde]
< 250 | 250 to 2500 |  | > 2500 | 250 to 2500 | O=Cc1ccnc(CNCC(=O)NC2CCN(Cc3ccccc3)C2)c1 (stereo not drawn) [Compound 113, N-(1-benzylpyrrolidin-3-yl)-2-{[(4-formylpyridin-2-yl)methyl]amino}-acetamide]
